Source: EP4678638A1, “NEW E3 UBIQUITIN LIGASE LIGAND, PROTEIN DEGRADATION AGENT AND USE THEREOF” (priority 2023, dated 2024)

Test system: EGFR
Assay: Western blot degradation of EGFR (H1975 Cell)
Format: cell-based, Human
Details: Table D2
Protocol: Conventional Western blot assay was performed to evaluate the effects of the compounds of the present disclosure on the expression of target proteins in cells.
(1) Cell Seeding and Protein Harvesting: The selected cells were processed according to the cell seeding procedure and protein harvesting procedure in Table III-2. Table III-2 Cell Seeding and Protein Harvesting Procedures
(2) To the collected supernatant, 5X SDS sample loading buffer was added, followed by denaturation at 95°C for 5 minutes. The denatured samples were then separated by SDS-PAGE electrophoresis on a polyacrylamide gel. Proteins were transferred to a nitrocellulose membrane (0.45 µm NC membrane), blocked with blocking buffer at room temperature for 1 hour, and subjected to antibody incubation and development procedures according to the antibody manufacturer's instructions (Cell Signaling Technology).
Half-Maximal Degradation Concentration value (the drug concentration required for degrading proteins by 50%, abbreviated as DC50) reads method: comparing the grayscale values of Western blot bands from drug-treated samples with those from blank DMSO-treated controls, and identifying the drug concentration range at which the grayscale value is half that of the DMSO-treated control bands.
DC50 values can be calculated using ImageJ software to measure grayscale values of Western blot bands from drug-treated samples. The concentration-response curve is fitted to estimate the drug concentration corresponding to half the grayscale value.
Target protein remaining (%) refers to the percentage of target protein remaining in hPBMC cells after treatment with protein degrader compounds.
Calculation method for target protein remaining (%): Use ImageJ software to measure grayscale values of Western blot bands from drug (protein degrader)-treated samples. The grayscale value of drug-treated bands is divided by that of internal control protein bands, and the resulting quotient is normalized to obtain the relative percentage of remaining target protein after protein degrader treatment.
Target protein degradation rate (%) = 100% - target protein remaining (%).

Structure (SMILES): COc1cc(N2CCN(Cc3ccc(C4CCC(=O)NC4=O)cc3)CC2)c(C)cc1Nc1ncc(Br)c(Nc2ccc3nccnc3c2P(C)(C)=O)n1 (stereo not shown) [GT-03913, 3-(4-((4-(4-((5-bromo-4-((5-(dimethylphosphoryl)quinoxalin-6-yl)amino)pyrimidin-2-yl)amino)-5-methoxy-2-methylphenyl)piperazin-1-yl)methyl)phenyl)piperidine-2,6-dione]
- Degradation of substrate protein EGFR (substrate protein remaining %): A (A is defined as 0% ≤ substrate protein remaining % ≤ 80%)

Structure (SMILES): COc1cc(N2CCN(Cc3ccc(C4CCC(=O)NC4=O)c(F)c3)CC2)c(C)cc1Nc1ncc(Br)c(Nc2ccc3nccnc3c2P(C)(C)=O)n1 (stereo not shown) [GT-03914, 3-(4-((4-(4-((5-bromo-4-((5-(dimethylphosphoryl)quinoxalin-6-yl)amino)pyrimidin-2-yl)amino)-5-methoxy-2-methylphenyl)piperazin-1-yl)methyl)-2-fluorophenyl)piperidine-2,6-dione]
- Degradation of substrate protein EGFR (substrate protein remaining %): A (A is defined as 0% ≤ substrate protein remaining % ≤ 80%)

Structure (SMILES): COc1cc(N2CCC(N(C)Cc3ccc(C4CCC(=O)NC4=O)c(F)c3)CC2)c(C)cc1Nc1ncc(Br)c(Nc2ccc3nccnc3c2P(C)(C)=O)n1 (stereo not shown) [GT-03931, 3-(4-(((1-(4-((5-bromo-4-((5-(dimethylphosphoryl)quinoxalin-6-yl)amino)pyrimidin-2-yl)amino)-5-methoxy-2-methylphenyl)piperidin-4-yl)(methyl)amino)methyl)-2-fluorophenyl)piperidine-2,6-dione]
- Degradation of substrate protein EGFR (substrate protein remaining %): A (A is defined as 0% ≤ substrate protein remaining % ≤ 80%)

Structure (SMILES): O=C1CCN(c2ccc(CN3C[C@@H]4C[C@H]3CN4c3ccc(-c4cc(F)c5c(c4)C(=O)N(C(C(=O)Nc4nccs4)c4ncn6c4CCC6)C5)cc3)cn2)C(=O)N1 (stereo partly drawn) [GT-05120, 2-(6,7-dihydro-5H-pyrrolo[1,2-c]imidazol-1-yl)-2-(6-(4-((1S,4S)-5-((6-(2,4-dioxotetrahydropyrimidin-1(2H)-yl)pyridin-3-yl)methyl)-2,5-diazabicyclo[2.2.1]heptan-2-yl)phenyl)-4-fluoro-1-oxoisoindolin-2-yl)-N-(thiazol-2-yl)acetamide]
- Degradation of substrate protein EGFR (substrate protein remaining %): A (A is defined as 0% ≤ substrate protein remaining % ≤ 80%)

Structure (SMILES): CC(C)n1nc(N2CCN(Cc3ccc(N4CCC(=O)NC4=O)cn3)CC2)c2cnc(Nc3ccnc(-c4cnn(S(=O)(=O)C5CC5)c4)n3)cc21 [GT-06014, 1-(6-((4-(6-((2-(1-(cyclopropylsulfonyl)-1H-pyrazol-4-yl)pyrimidin-4-yl)amino)-1-isopropyl-1H-pyrazolo[4,3-c]pyridin-3-yl)piperazin-1-yl)methyl)pyridin-3-yl)dihydropyrimidine-2,4(1H,3H)-dione]
- Degradation of substrate protein EGFR (substrate protein remaining %): A (A is defined as 0% ≤ substrate protein remaining % ≤ 80%)

Structure (SMILES): CC(C)n1nc(N2CCN(Cc3ccc(N4CCC(=O)NC4=O)nc3)CC2)c2cnc(Nc3ccnc(-c4cnn(S(=O)(=O)C5CC5)c4)n3)cc21 [GT-06015, 1-(5-((4-(6-((2-(1-(cyclopropylsulfonyl)-1H-pyrazol-4-yl)pyrimidin-4-yl)amino)-1-isopropyl-1H-pyrazolo[4,3-c]pyridin-3-yl)piperazin-1-yl)methyl)pyridin-2-yl)dihydropyrimidine-2,4(1H,3H)-dione]
- Degradation of substrate protein EGFR (substrate protein remaining %): A (A is defined as 0% ≤ substrate protein remaining % ≤ 80%)

Structure (SMILES): CC(C)n1nc(N2CCN(Cc3cccc(NC4CCC(=O)NC4=O)c3)CC2)c2cnc(Nc3ccnc(-c4cnn(S(=O)(=O)C5CC5)c4)n3)cc21 (stereo not shown) [GT-06016, 3-((3-((4-(6-((2-(1-(cyclopropylsulfonyl)-1H-pyrazol-4-yl)pyrimidin-4-yl)amino)-1-isopropyl-1H-pyrazolo[4,3-c]pyridin-3-yl)piperazin-1-yl)methyl)phenyl)amino)pip eridine-2,6-dione]
- Degradation of substrate protein EGFR (substrate protein remaining %): A (A is defined as 0% ≤ substrate protein remaining % ≤ 80%)

Structure (SMILES): CCn1nc(N2CCC(N(C)Cc3ccc(N4CCC(=O)NC4=O)nc3)CC2)c2cnc(Nc3ccnc(-c4cnn(S(=O)(=O)C5CC5)c4)n3)cc21 [GT-06022, 1-(5-(((1-(6-((2-(1-(cyclopropylsulfonyl)-1H-pyrazol-4-yl)pyrimidin-4-yl)amino)-1-ethyl-1H-pyrazolo[4,3-c]pyridin-3-yl)piperidin-4-yl)(methyl)amino)methyl)pyridin-2-yl)dihydropyrimidine-2,4(1H,3H)-dione]
- Degradation of substrate protein EGFR (substrate protein remaining %): A (A is defined as 0% ≤ substrate protein remaining % ≤ 80%)

Structure (SMILES): COC1CCN(c2nccc(Nc3cc4c(cn3)c(N3CCN(Cc5cccc(N6CCC(=O)NC6=O)c5)CC3)nn4C(C)C)n2)CC1 [GT-06038, 1-(3-((4-(1-isopropyl-6-((2-(4-methoxypiperidin-1-yl)pyrimidin-4-yl)amino)-1H-pyrazolo[4,3-c]pyridin-3-yl)piperazin-1-yl)methyl)phenyl)dihydropyr imidine-2,4(1H,3H)-dione]
- Degradation of substrate protein EGFR (substrate protein remaining %): A (A is defined as 0% ≤ substrate protein remaining % ≤ 80%)

Structure (SMILES): COC1CCN(c2nccc(Nc3cc4c(cn3)c(N3CCN(Cc5ccc(N6CCC(=O)NC6=O)cn5)CC3)nn4C(C)C)n2)CC1 [GT-06039, 1-(6-((4-(1-isopropyl-6-((2-(4-methoxypiperidin-1-yl)pyrimidin-4-yl)amino)-1H-pyrazolo[4,3-c]pyridin-3-yl)piperazin-1-yl)methyl)pyridin-3-yl)dihydropyrimidine-2,4(1H,3H)-dione]
- Degradation of substrate protein EGFR (substrate protein remaining %): A (A is defined as 0% ≤ substrate protein remaining % ≤ 80%)

Structure (SMILES): CC(C)n1nc(N2CCC(N3CCN(Cc4ccc(N5CCC(=O)NC5=O)cc4)CC3)CC2)c2cnc(Nc3ccnc(-c4cnn(S(=O)(=O)C5CC5)c4)n3)cc21 [GT-06079, 1-(4-((4-(1-(6-((2-(1-(cyclopropylsulfonyl)-1H-pyrazol-4-yl)pyrimidin-4-yl)amino)-1-isopropyl-1H-pyrazolo[4,3-c]pyridin-3-yl)piperidin-4-yl)piperazin-1-yl)methyl)phenyl)dihydropyr imidine-2,4(1H,3H)-dione]
- Degradation of substrate protein EGFR (substrate protein remaining %): A (A is defined as 0% ≤ substrate protein remaining % ≤ 80%)

Structure (SMILES): CC(C)n1nc(N2CCC(N3CCN(Cc4cccc(NC5CCC(=O)NC5=O)c4)CC3)CC2)c2cnc(Nc3ccnc(-c4cnn(S(=O)(=O)C5CC5)c4)n3)cc21 (stereo not shown) [GT-06083, 3-((3-((4-(1-(6-((2-(1-(cyclopropylsulfonyl)-1H-pyrazol-4-yl)pyrimidin-4-yl)amino)-1-isopropyl-1H-pyrazolo[4,3-c]pyridin-3-yl)piperidin-4-yl)piperazin-1-yl)methyl)phenyl)amino)pip eridine-2,6-dione]
- Degradation of substrate protein EGFR (substrate protein remaining %): A (A is defined as 0% ≤ substrate protein remaining % ≤ 80%)

Structure (SMILES): COC1CCN(c2nccc(Nc3cc4c(cn3)c(N3CCC(N(C)Cc5ccc(C6CCC(=O)NC6=O)cc5)CC3)nn4C(C)C)n2)CC1 (stereo not shown) [GT-06120, 3-(4-(((1-(1-isopropyl-6-((2-(4-methoxypiperidin-1-yl)pyrimidin-4-yl)amino)-1H-pyrazolo[4,3-c]pyridin-3-yl)piperidin-4-yl)(methyl)amino)methyl)phenyl)piperidine-2,6-dione]
- Degradation of substrate protein EGFR (substrate protein remaining %): A (A is defined as 0% ≤ substrate protein remaining % ≤ 80%)
